Experiment [1] concerns the target T1, ASK1/MAP3K5 (Homo sapiens, UniProt Q99683).
T1 sequence (Q99683 1-1374): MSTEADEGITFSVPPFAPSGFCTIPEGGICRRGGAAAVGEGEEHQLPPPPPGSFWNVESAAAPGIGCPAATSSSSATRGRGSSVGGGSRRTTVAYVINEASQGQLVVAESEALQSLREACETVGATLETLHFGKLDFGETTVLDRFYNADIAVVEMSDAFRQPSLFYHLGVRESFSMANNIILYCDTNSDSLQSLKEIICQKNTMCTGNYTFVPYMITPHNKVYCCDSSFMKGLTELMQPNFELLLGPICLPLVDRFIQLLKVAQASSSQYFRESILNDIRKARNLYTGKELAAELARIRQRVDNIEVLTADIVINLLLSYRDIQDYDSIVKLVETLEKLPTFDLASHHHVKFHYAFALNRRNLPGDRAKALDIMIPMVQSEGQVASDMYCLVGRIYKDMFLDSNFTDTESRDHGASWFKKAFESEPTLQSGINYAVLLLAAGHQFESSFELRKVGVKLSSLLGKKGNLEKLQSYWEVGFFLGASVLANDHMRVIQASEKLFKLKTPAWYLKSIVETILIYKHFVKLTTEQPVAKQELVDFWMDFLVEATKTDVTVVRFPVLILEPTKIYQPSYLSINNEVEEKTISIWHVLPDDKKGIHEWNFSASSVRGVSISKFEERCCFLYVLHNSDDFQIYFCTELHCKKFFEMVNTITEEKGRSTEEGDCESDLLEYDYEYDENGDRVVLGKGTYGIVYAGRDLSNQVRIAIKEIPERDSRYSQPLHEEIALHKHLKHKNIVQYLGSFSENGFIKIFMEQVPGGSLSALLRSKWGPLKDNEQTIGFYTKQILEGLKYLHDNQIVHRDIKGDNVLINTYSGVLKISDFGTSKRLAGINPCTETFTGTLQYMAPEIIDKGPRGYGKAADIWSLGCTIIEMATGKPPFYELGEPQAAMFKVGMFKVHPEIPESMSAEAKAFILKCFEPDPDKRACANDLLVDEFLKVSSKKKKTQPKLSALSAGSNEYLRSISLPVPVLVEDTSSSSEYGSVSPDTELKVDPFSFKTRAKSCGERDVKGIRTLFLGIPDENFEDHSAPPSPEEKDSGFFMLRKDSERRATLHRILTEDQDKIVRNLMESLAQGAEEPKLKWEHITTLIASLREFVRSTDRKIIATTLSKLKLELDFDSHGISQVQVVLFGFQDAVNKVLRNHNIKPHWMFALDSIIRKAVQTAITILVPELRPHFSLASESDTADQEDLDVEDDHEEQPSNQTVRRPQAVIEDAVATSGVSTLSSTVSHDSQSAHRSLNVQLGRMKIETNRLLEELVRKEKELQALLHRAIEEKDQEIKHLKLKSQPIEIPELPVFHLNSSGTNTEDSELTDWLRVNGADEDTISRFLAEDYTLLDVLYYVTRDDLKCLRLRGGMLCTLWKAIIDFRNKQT
The experiment is described as follows: biochemical. Particulars: read-out: % enzyme activity, 1 μM; Run 1, Run 2.

Experiment [2] deals with T2, PKG1a (Homo sapiens, UniProt Q13976).
T2 sequence (Q13976 1-671): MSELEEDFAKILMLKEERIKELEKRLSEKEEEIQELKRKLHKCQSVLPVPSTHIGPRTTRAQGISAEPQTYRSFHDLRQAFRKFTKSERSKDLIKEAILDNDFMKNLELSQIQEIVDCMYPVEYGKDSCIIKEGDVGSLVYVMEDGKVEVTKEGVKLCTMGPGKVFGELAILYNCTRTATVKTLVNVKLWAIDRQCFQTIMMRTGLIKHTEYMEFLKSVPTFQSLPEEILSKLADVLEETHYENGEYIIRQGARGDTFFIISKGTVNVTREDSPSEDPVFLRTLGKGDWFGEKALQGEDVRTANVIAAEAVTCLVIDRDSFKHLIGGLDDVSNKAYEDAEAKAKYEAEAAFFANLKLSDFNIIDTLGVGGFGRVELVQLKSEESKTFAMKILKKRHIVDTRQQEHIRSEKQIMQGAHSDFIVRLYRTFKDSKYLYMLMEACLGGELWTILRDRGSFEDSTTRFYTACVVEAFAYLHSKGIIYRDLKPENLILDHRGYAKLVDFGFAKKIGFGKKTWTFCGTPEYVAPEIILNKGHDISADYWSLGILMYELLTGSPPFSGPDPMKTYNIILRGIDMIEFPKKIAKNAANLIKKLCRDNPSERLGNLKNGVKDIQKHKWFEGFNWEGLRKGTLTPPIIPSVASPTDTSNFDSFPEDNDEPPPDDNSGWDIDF
Particulars: 1 μM; Run 1, Run 2.

Experiment [3] concerns the target CDK5/p35 (Homo sapiens, UniProt Q00535). Conditions: 1 μM; Run 1, Run 2.
Experiment [4] concerns the target T3, ZAP70 (Homo sapiens, UniProt P43403).
T3 sequence (P43403 1-619): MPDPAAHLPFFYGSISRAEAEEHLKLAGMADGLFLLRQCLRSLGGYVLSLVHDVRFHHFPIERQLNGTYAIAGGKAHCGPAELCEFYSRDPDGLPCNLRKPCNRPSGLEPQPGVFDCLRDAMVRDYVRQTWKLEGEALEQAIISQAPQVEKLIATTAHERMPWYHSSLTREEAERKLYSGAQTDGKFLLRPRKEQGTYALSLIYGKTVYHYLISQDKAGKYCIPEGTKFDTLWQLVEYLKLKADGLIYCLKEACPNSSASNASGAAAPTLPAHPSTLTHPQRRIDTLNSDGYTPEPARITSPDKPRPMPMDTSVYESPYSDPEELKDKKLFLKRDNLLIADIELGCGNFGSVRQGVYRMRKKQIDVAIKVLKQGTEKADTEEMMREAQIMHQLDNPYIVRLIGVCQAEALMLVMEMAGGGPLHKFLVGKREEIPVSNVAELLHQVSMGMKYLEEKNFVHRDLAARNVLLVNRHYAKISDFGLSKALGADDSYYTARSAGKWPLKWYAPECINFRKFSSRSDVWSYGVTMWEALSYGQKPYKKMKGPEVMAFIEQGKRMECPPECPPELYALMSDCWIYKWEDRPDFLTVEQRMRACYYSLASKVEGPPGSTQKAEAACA
The experiment is described as follows: biochemical. Particulars: read-out: % enzyme activity, 1 μM; Run 1, Run 2.

CDK5/p35, sequence (Q00535 whole entry): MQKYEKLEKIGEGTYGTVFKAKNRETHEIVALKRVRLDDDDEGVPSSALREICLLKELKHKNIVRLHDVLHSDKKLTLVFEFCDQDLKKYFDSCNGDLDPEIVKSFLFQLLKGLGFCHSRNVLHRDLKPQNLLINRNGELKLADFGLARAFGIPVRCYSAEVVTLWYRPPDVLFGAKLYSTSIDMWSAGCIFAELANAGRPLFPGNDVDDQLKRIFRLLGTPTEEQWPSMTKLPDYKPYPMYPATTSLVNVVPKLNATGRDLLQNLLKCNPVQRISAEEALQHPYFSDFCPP
CDK5/p35, sequence (Q15078 whole entry partner): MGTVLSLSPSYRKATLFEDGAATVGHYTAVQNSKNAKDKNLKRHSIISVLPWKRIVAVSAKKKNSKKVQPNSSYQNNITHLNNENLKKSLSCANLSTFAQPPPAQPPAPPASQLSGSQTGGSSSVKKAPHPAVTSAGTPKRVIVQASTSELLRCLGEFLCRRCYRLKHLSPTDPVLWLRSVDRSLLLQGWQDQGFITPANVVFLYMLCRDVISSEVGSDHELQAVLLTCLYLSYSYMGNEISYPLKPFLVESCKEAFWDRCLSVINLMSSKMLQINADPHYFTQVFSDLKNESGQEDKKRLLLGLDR

Consider `COc1cc(-c2cncc(-c3ccc(N4CCN(C)CC4)cc3)c2C)cc(F)c1C(N)=O` [Compound 26a, 2-Fluoro-6-methoxy-4-(4-methyl-5-(4-(4-methylpiperazin-1-yl)phenyl)pyridin-3-yl)benzamide], for which the remaining activity at 1 µM in experiment [1] was found to be 95.5%; in experiment [4] it was 96.2%. For the same molecule, the “% enzyme activity” value in experiment [2] is listed as 97.81%; in experiment [3], 95.26%.

On to `COc1cc(-c2cncc(-c3ccc(N4C[C@@H](C)N(C)[C@@H](C)C4)cc3)c2C)cc(F)c1C(N)=O` [Compound 26c, 2-Fluoro-6-methoxy-4-(4-methyl-5-(4-((3R,5S)-3,4,5-trimethylpiperazin-1-yl)phenyl)pyridin-3-yl)benzamide], for which the results for the remaining activity at 1 µM in experiment [1] and in experiment [4] were 97.8% and 98.7%, respectively. Moreover, the “% enzyme activity” value amounted to 101.45% in experiment [2] and 96.90% in experiment [3].

For the origin of these results see article PMC8213057, “Targeting ALK2: An Open Science Approach to Developing Therapeutics for the Treatment of Diffuse Intrinsic Pontine Glioma” (Journal of Medicinal Chemistry, 2020).
